These results are taken from patent US10155004B2, “17-hydroxy-17-pentafluoroethyl-estra-4,9(10)-dien-11-aryl derivatives, method of production thereof and use thereof for the treatment of diseases” (BAYER INTELLECTUAL PROPERTY GMBH, priority 2009, dated 2018).

The nature of series [1]: Metabolic stability in human liver microsomes (HLM). It counts as in vitro ADME. The settings on record: from HLM half-life, well-stirred model, phase I reactions; 1 μM, 0.5 mg/ml protein. How it is done:
EXAMPLE 18 METABOLIC STABILITY OF (11β,17β)-17-HYDROXY-11[4-(METHYLSULPHONYL)PHENYL]-17-(PENTAFLUOROETHYL)ESTRA-4,9-DIEN-3-ONE AND (11β,17β)-17-HYDROXY-11-[4′-(METHYLSULPHONYL)-BIPHENYL-4-YL]-17-(PENTAFLUOROETHYL)ESTRA-4,9-DIEN-3-ONE IN HUMAN LIVER MICROSOMES (HLM)
Isolated human liver microsomes (HLM) were used for assessing the metabolic stability of compounds of general formula I.
Incubations were carried out with 2.4 ml of HLM solution (0.5 mg/ml protein content), 30 μl of the test compound (final concentration 1 μM) and 0.6 ml of the cofactor mixture (=NADPH-generating system of 3 IU glucose-6-phosphate dehydrogenase, 14.6 mg glucose-6-phosphate, 1.2 mg NADP) at 37° C. in 100 mM phosphate buffer at pH 7.4. Samples are taken at 6 time points (2-60 min), precipitated with an equal volume of methanol and the recovery of the test substances used in the supernatant is determined by LC-MS/MS analysis. The intrinsic clearance of the substance in the liver microsome preparation can be calculated from the half-life found for the breakdown of the substance. Based on this, together with various physiological characteristics according to the well-stirred model, it is then possible to predict a (metabolic) in vivo clearance with respect to phase I reactions. […]
(In general: Liver microsomes are vesicles of endoplasmic reticulum, rich in cytochrome P450 enzymes.)

The subject of a further series is cardiovascular system. As to the kind of experiment: Action on the cardiovascular system (incl. ECG) of anaesthetized beagle dogs. It counts as in vivo. How it is done: EXAMPLE 20 INVESTIGATION OF THE ACTION ON THE CARDIOVASCULAR SYSTEM (INCL. ECG) OF ANAESTHETIZED BEAGLE DOGS
(11β,17β)-17-Hydroxy-11-[4-(methylsulphonyl)phenyl]-17-(pentafluoroethy)estra-4,9-dien-3-one, dissolved in a mixture of PEG 400 and HP-β-CD (60% PEG 400, 40% HP-β-CD 30%), was administered intravenously to anaesthetized female beagle dogs. The body weight of the dogs was >9 kg. 3 dogs were treated per group and additionally 3 dogs in the control group. 0.1; 0.33 and 1 mg/kg of the substance was administered in 3 consecutive infusions, in each case over a period of 30 minutes. The maximum amount of vehicle was 0.4 ml per kg for 30 minutes. Blood samples were taken from the animals at various time points. The highest plasma level (average for all 3 animals) was 1650 ng/ml at the end of the third infusion.

In the next series the test system is rodents and non-rodents. Conditions: in vivo.

`C[C@]12C[C@H](c3ccc(S(C)(=O)=O)cc3)C3=C4CCC(=O)C=C4CC[C@H]3[C@@H]1CC[C@@]2(O)C(F)(F)C(F)(F)F` [Example 4, (11β,17β)-17-Hydroxy-11-[4-(methylsulphonyl)phenyl]-17-(pentafluoroethyl)estra-4,9-dien-3-one]: in series [1], the “(metabolic) in vivo clearance in humans predicted” value was 1.7 mL/min/kg. In the series with cardiovascular system (end of third infusion, i.v. 0.1, 0.33 and 1 mg/kg consecutive 30 minute infusions), the “highest plasma level (average for all 3 animals)” value is 1650 ng/mL. Besides, the “effects on the cardiovascular system (pulmonary artery pressure, systemic arterial blood pressure, heart rate, ECG)” value in the series on cardiovascular system (i.v. 0.1, 0.33 and 1 mg/kg, in comparison with the control) was “no biologically relevant effects”. The safety profile entry with rodents and non-rodents is on record as “especially favourable safety profile”.
